# Measured values as given in patent US20180168208A1 (priority 2014, published 2018).
# Read-outs that look alike come from different tables or passages of the source.
# Assays:
# T1R1/T1R3 receptor [1] = target: T1, T1R1/T1R3 receptor (Felis catus, UniProt E3UMS2); assay: Example 8: PAM screening of transmembrane compounds with GMP and Ala on T1R1/T1R3 in HEK293 cells; type: cell-based, cat; conditions: in the presence of GMP and Alanine
# Text: HEK293 cells that stably express T1R3 and inducibly express T1R1 were exposed to transmembrane compound alone or in combination with Ala and GMP to activate the umami receptor. Activation of the T1R1/T1R3 receptor was detected by a change in intracellular calcium levels using a calcium sensitive fluorescent dye and/or a luminescent reporter system. […] A FLIPR® Tetra or a FlexStation® 3 was used for data capture.
# Dose response curves were generated for each transmembrane compound at concentrations of 0 (buffer only), 0.01, 0.1 and 1 mM, wherein each of the three concentrations of transmembrane compound was tested in combination with 0.03 mM GMP+100 mM Ala (T1); 0.6 mM GMP+10 mM Ala (T2); 0.1 mM GMP+60 mM Ala (T3) and 0.3 mM GMP+60 mM Ala (T4). The T4 mixture was also tested in a 2-fold dilution series (the T4(×) Concentration). In these experiments, the first test concentration was 2× (2 times) the T4 concentration. The subsequent test concentrations were 2-fold dilutions from that (1×, 0.5×etc.). This dilution series was tested with or without the addition of the test compound at a constant 0.3 mM concentration.
# Activation of the umami receptor was also determined in the presence of 1 mM GMP+100 mM Ala to generate a “maximum” umami receptor activation level.
# T1R1/T1R3 receptor [2] = target: T1, T1R1/T1R3 receptor; assay: cell-based
# Text: HEK293 cells that stably express T1R3 and inducibly express T1R1 were exposed to nucleotide derivatives alone to activate the umami receptor. Activation of the T1R1/T1R3 receptor was detected by a change in intracellular calcium levels using a calcium sensitive fluorescent dye. Cells that express T1R3 but not T1R1 were used as a control. A FLIPR® Tetra or a FlexStation® 3 was used for data capture.
# HEK293 cells that stably express T1R3 and inducibly express T1R1 were exposed to nucleotide derivatives alone or in combination with one or more amino acids and/or one or more nucleotides to activate the umami receptor. Activation of the T1R1/T1R3 receptor was detected by a change in intracellular calcium levels using a calcium sensitive fluorescent dye and/or a luminescent reporter system. Cells that express T1R3 but not T1R1 were used as a control. A FLIPR® Tetra or a FlexStation® 3 was used for data capture.
# (§1) HEK293 cells that stably express T1R3 and inducibly express T1R1 were exposed to transmembrane compounds alone or in combination with one or more amino acids and/or one or more nucleotides to activate the umami receptor. Activation of the T1R1/T1R3 receptor was detected by a change in intracellular calcium levels using a calcium sensitive fluorescent dye. Cells that express T1R3 but not T1R1 were used as a control. A FLIPR® Tetra or a FlexStation® 3 was used for data capture.
# (§2) In each experiment, serial dilutions of up to 10 mM of the transmembrane compound were added to the T1R1/T1R3-expressing cells.
# cat T1R1/T1R3 receptor = target: T2, cat T1R1/T1R3 receptor (Felis catus, UniProt A0ABI7Z2I4); assay: cell-based
# T2 sequence (A0ABI7Z2I4 171-420): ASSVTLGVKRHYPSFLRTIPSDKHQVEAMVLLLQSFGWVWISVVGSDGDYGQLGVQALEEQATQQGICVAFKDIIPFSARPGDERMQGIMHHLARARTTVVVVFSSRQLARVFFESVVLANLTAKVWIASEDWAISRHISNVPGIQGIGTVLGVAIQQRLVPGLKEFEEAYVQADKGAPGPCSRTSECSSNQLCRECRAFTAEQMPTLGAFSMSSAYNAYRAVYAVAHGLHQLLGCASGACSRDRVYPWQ
# T2 sequence (Q49KI5 25-865 E206Q/N523D/F654L partner): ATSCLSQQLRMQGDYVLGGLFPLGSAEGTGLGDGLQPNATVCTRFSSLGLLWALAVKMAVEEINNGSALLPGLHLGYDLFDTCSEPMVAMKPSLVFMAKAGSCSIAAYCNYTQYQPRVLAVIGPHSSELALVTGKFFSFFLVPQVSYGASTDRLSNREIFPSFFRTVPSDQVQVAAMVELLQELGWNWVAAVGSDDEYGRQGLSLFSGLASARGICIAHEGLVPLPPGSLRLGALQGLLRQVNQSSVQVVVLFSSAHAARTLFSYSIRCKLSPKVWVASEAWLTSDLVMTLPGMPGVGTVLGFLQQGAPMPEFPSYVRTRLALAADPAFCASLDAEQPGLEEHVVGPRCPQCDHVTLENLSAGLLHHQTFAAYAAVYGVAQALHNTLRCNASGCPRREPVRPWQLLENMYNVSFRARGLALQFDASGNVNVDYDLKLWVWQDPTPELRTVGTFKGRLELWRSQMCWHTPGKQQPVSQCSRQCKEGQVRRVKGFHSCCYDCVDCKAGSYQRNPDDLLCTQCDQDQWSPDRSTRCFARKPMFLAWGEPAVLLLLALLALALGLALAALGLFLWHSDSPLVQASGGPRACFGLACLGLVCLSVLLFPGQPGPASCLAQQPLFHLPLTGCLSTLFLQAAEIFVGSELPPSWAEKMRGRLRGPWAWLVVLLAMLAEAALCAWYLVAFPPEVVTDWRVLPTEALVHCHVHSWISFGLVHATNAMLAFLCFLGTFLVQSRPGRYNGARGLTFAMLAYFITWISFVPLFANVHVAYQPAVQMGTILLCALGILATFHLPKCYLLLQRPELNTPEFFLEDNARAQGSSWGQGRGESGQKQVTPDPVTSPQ
# Method in brief: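 HEK293 cells stably expressing T1R3 with inducible T1R1, treated with nucleotide derivatives alone or combined with amino acids and/or nucleotides. Activation read as intracellular calcium change by calcium-sensitive fluorescent dye and/or luminescent reporter. Cells expressing T1R3 without T1R1 served as control.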
# T1R1/T1R3 receptor [3] = target: T1, T1R1/T1R3 receptor; assay: cell-based; type: cell-based
# Text: as §1, §2
# [4] = in the presence of 0.2 mM IMP, relative to alanine
# [5] = threshold concentration in the presence of 0.2 mM IMP
# [6] = EC50 (effect with 0.2 mM IMP), positive controls measured with 0.2 mM IMP
# [7] = EC50 (effect with 0.2 mM IMP), control compounds, with 0.2 mM IMP, Table 25
# [8] = EC50 (mM), +IMP (0.2 mM), in the presence of 0.2 mM IMP
# [9] = T1R1/T1R3 EC50 +0.2 mM IMP, +0.2 mM IMP
# [10] = T1R1/T1R3 EC50 +20 mM L-alanine + 0.2 mM IMP, +20 mM L-alanine + 0.2 mM IMP
SMILES,"Max resp % of IMP, +Alanine (20 mM) (T1R1/T1R3 receptor [2]) [%]","Max resp % of Ala, +IMP (0.2 mM) (T1R1/T1R3 receptor [2]; [4]) [%]","Thres (mM), +IMP (0.2 mM) (T1R1/T1R3 receptor [2]; [5]) [mM]",EC50 (T1R1/T1R3 receptor [3]; [6]) [µM],EC50 (T1R1/T1R3 receptor [2]; [7]) [mM],EC50 (T1R1/T1R3 receptor [2]; [8]) [mM],EC50 (cat T1R1/T1R3 receptor; read-out: EC50) [µM],other results
"O=C(CN1C(=O)C(=O)N(Cc2ccccc2)C1=O)c1ccc(Cl)s1 [1-benzyl-3-(2-(5-chlorothiophen-2-yl)-2-oxoethyl)imidazolidine-2,4,5-trione]",,,,,,,,PAM profile assessment (PAM activity) (T1R1/T1R3 receptor [1]): PAM activity
O=P(O)(O)OP(=O)(O)OP(=O)(O)OC[C@H]1O[C@@H](n2cnc3c(Cl)ncnc32)[C@H](O)[C@@H]1O [6-Chloropurine riboside-5′-O-triphosphate],50.4,30.2,0.003,,,,,"Thres (mM), +Alanine (20 mM) (T1R1/T1R3 receptor [2]): 0.01 mM; EC50 (T1R1/T1R3 receptor [2]; alone in buffer, read-out: T1R1/T1R3 EC50 alone in buffer): > 0.03 mM; EC50 (T1R1/T1R3 receptor [2]; compound alone in buffer, read-out: EC50 (mM), +buffer (alone)): > 0.3 mM; Activity (T1R1/T1R3 receptor [2]; overall call: active or N/A (not active) on T1R1/T1R3): active; EC50 (T1R1/T1R3 receptor [2]; read-out: EC50 (mM), +Alanine (20 mM)): > 0.3 mM; EC50 (T1R1/T1R3 receptor [2]; read-out: EC50 (mM), +Alanine (20 mM) + IMP (0.2 mM)): > 0.3 mM; EC50 (T1R1/T1R3 receptor [2]; read-out: EC50 (mM), +IMP (0.2 mM), in the presence of 0.2 mM IMP): > 0.3 mM; EC50 (T1R1/T1R3 receptor [2]; read-out: T1R1/T1R3 EC50 +0.2 mM IMP, +0.2 mM IMP): > 0.03 mM; EC50 (T1R1/T1R3 receptor [2]; read-out: T1R1/T1R3 EC50 +20 mM L-alanine): > 0.03 mM; EC50 (T1R1/T1R3 receptor [2]; read-out: T1R1/T1R3 EC50 +20 mM L-alanine + 0.2 mM IMP): > 0.03 mM; EC50 (cat T1R1/T1R3 receptor): > 30 µM; Threshold (cat T1R1/T1R3 receptor): 0.01 mM"
"N[C@@H](Cc1c[nH]cn1)C(=O)O [L-Histidine, L-histidine]",,36.3,10.0,10200 ± 1700,15.3 ± 3.2,15.3,10200 ± 1700,
"N[C@@H](CO)C(=O)O [L-Serine, serine]",,100.0,3.0,31500 ± 2300,15.1 ± 2.3,15.1,31500 ± 2300,
"N[C@@H](Cc1c[nH]c2ccccc12)C(=O)O [L-Tryptophan, tryptophan]",,86.8,0.1,900 ± 100,0.5 ± 0.1,0.5,900 ± 100,
"N[C@@H](CS)C(=O)O [L-Cysteine, cysteine]",,74.6,10.0,39500 ± 1900,43.9 ± 5.6,43.9,39500 ± 1900,"Max resp ΔF/F, +IMP (0.2 mM) (T1R1/T1R3 receptor [2]; in the presence of 0.2 mM IMP): 0.5800 ΔF/F"
"N[C@@H](Cc1ccccc1)C(=O)O [L-Phenylalanine, reference compound]",,75.9,0.1,1900 ± 100,0.5 ± 0.1,0.5,1900 ± 100,"Max resp ΔF/F, +IMP (0.2 mM) (T1R1/T1R3 receptor [2]; in the presence of 0.2 mM IMP): 0.5900 ΔF/F"
"Nc1nc2c(ncn2[C@@H]2O[C@H](COP(=O)(O)O)[C@@H](O)[C@H]2O)c(=O)[nH]1 [GMP, guanosine monophosphate, reference compound]",,,,50 ± 4,0.09 ± 0.02,,,"EC50 (T1R1/T1R3 receptor [3]): 50 ± 20 µM; EC50 (T1R1/T1R3 receptor [3]; alone in buffer, read-out: EC50 - alone): 40 ± 10 µM; EC50 (cat T1R1/T1R3 receptor): 20 µM; Threshold (cat T1R1/T1R3 receptor): 0.008 mM"
"CSCC[C@H](N)C(=O)O [L-Methionine, methionine]",,,,25500 ± 3700,,,,"Max resp % of Ala, +IMP (0.2 mM) (T1R1/T1R3 receptor [2]): 45.0%; Thres (mM), +IMP (0.2 mM) (T1R1/T1R3 receptor [2]): 30.0 mM; EC50 (T1R1/T1R3 receptor [2]; EC50 (effect with 0.2 mM IMP)): 33.9 ± 1.5 mM; EC50 (T1R1/T1R3 receptor [2]; EC50 (mM), +IMP (0.2 mM)): 33.9 mM; EC50 (cat T1R1/T1R3 receptor): 25500 ± 3700 µM"
"N[C@@H](Cc1ccc(O)cc1)C(=O)O [L-Tyrosine, tyrosine]",,38.0,3.0,,9.3 ± 1.7,9.3,10300 ± 900,
"CCCCc1nn(CC(=O)N2CCCC2)c(=O)n1Cc1ccccc1 [4-benzyl-3-butyl-1-(2-oxo-2-(pyrrolidin-1-yl)ethyl)-1H-1,2,4-triazol-5(4H)-one]",129.9,193.2,0.1,,,,,"Thres (mM), +Alanine (20 mM) (T1R1/T1R3 receptor [2]): 0.3 mM; EC50 (T1R1/T1R3 receptor [2]; [9]): > 0.3 mM; EC50 (T1R1/T1R3 receptor [2]; [10]): > 0.3 mM"
CC(=O)Nc1ccc(C(=O)Nc2cc(-c3ccccc3)nn2CCO)cc1 [4-acetamido-N-(1-(2-hydroxyethyl)-3-phenyl-1H-pyrazol-5-yl)benzamide],1.8,58.8,,,,> 1,,EC50 (T1R1/T1R3 receptor [2]; [9]): > 0.1 mM; EC50 (T1R1/T1R3 receptor [2]; [10]): > 0.1 mM
CC(C)CC(NC(=O)c1ccccc1)C(N)=O (racemic),125.5,204.5,0.1,,,,,"Thres (mM), +Alanine (20 mM) (T1R1/T1R3 receptor [2]): 0.3 mM; EC50 (T1R1/T1R3 receptor [2]; EC50 (mM), +Alanine (20 mM) + IMP (0.2 mM), in the presence of 20 mM alanine and 0.2 mM IMP): 0.91 mM"
